Measured values as given in patent US9968620B2, “Methods of treating lymphoma using thienotriazolodiazepine compounds” (ONCOETHIX GmbH, priority 2014, dated 2018).
pIC50, pKi: −log10 of the molar value. Where a name gives a salt, the structure may show the parent alone.

Legend:
HDAC = conditions: cited from earlier work
[1] = test system: lymphoma cell lines (2-5 cell lines); test: Synergy of compound (1-1) with other agents, MTT, Chou-Talalay combination index; type: cell-based; conditions: 72 h; for combination effect with compound (1-1): Chou-Talalay; for Chou-Talalay combination index (CI), median / Chou-Talalay combination index (CI), range: in combination with compound (1-1)
JAK-3 = JAK-3 (Homo sapiens, UniProt P52333); conditions: cited from earlier work
Hck = Hck (Homo sapiens, UniProt P08631); conditions: cited from earlier work
EGFR kinase = EGFR kinase (Homo sapiens, UniProt P00533); conditions: cited from earlier work
JAK-2 = JAK-2 (Homo sapiens, UniProt O60674); conditions: cited from earlier work
IR kinase = IR kinase (Homo sapiens, UniProt P06213); conditions: cited from earlier work
SYK = SYK (Homo sapiens, UniProt P43405); conditions: cited from earlier work
JAK-1 = JAK-1 (Homo sapiens, UniProt P23458); conditions: cited from earlier work
PDGFR = conditions: cited from earlier work
FKBP12 = FKBP12 (Homo sapiens, UniProt P62942); conditions: cited from earlier work
PI3Kβ (p110β) = PI3Kβ (p110β) (Homo sapiens, UniProt P42338); conditions: cited from earlier work
PI3Kγ (p110γ) = PI3Kγ (p110γ) (Homo sapiens, UniProt P48736); conditions: cited from earlier work
[2] = test system: Akt phosphorylation on T308; conditions: cited from earlier work
[3] = test system: Akt phosphorylation on S473; conditions: cited from earlier work
PI3K/mTOR = conditions: cited from earlier work
[4] = test system: pAktS473, pGSK3βS9, pS6, pMAPK, pAktT308; conditions: cited from earlier work

JAK-2, sequence (O60674 whole entry, species assumed): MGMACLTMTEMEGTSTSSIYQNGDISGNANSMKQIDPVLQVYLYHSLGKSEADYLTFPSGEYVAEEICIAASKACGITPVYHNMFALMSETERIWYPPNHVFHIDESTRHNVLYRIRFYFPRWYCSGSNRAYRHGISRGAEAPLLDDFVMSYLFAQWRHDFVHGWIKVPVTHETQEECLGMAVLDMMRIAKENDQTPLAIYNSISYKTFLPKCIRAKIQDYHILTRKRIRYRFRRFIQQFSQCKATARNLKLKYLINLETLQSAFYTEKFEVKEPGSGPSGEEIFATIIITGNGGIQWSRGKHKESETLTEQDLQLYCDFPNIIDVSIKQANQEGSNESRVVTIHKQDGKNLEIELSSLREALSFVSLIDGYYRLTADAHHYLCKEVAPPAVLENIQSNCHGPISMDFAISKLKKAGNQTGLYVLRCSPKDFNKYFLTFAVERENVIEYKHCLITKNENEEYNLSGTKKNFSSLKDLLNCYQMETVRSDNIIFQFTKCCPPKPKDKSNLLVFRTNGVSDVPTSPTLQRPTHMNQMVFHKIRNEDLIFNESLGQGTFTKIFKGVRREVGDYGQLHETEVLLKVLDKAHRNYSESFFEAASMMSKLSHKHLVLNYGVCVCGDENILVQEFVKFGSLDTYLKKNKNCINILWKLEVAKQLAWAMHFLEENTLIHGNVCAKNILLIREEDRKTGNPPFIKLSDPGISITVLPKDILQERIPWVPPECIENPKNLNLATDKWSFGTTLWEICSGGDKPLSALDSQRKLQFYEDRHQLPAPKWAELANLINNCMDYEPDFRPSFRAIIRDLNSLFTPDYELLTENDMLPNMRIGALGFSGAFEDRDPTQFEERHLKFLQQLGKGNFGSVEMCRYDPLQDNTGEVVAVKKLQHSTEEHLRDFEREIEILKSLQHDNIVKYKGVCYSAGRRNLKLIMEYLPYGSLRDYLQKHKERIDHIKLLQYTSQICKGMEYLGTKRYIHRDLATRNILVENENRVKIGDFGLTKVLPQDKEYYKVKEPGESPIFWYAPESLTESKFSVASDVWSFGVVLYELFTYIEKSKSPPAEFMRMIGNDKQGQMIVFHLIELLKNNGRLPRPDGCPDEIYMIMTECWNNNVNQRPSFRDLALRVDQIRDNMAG
JAK-3, sequence (P52333 whole entry, species assumed): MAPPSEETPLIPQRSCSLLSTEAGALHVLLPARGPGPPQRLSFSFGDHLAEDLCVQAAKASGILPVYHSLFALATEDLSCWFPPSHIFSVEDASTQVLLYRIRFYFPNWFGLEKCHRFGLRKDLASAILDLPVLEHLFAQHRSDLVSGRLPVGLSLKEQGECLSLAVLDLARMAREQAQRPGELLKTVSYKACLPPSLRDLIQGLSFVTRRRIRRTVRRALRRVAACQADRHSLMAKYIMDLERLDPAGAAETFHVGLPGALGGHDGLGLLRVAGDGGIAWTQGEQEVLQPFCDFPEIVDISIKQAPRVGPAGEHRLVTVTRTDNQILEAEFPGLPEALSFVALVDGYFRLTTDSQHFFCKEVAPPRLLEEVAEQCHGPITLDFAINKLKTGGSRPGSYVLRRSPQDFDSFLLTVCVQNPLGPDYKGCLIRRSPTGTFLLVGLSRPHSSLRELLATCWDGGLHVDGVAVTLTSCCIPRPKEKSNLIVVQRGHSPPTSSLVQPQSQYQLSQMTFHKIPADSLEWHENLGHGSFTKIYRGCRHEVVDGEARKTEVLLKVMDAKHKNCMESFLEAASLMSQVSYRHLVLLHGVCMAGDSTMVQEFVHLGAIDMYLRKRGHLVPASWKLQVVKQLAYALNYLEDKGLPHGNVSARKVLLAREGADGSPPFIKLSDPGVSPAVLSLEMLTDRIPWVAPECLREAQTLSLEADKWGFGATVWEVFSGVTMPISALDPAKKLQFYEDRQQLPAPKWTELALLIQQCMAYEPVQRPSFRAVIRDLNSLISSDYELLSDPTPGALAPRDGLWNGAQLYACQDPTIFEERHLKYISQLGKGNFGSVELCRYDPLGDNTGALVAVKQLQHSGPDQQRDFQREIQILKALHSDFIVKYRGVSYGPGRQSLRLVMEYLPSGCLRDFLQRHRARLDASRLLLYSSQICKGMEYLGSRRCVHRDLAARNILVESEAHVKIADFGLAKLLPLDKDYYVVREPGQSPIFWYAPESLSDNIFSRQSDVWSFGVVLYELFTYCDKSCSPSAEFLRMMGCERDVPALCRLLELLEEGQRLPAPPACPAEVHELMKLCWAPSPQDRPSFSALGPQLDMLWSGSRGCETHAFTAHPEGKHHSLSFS
FKBP12, sequence (P62942 whole entry, species assumed): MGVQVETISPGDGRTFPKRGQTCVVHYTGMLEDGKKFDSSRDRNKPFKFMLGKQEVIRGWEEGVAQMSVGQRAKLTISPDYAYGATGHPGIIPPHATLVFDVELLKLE
EGFR kinase, sequence (P00533 25-1210): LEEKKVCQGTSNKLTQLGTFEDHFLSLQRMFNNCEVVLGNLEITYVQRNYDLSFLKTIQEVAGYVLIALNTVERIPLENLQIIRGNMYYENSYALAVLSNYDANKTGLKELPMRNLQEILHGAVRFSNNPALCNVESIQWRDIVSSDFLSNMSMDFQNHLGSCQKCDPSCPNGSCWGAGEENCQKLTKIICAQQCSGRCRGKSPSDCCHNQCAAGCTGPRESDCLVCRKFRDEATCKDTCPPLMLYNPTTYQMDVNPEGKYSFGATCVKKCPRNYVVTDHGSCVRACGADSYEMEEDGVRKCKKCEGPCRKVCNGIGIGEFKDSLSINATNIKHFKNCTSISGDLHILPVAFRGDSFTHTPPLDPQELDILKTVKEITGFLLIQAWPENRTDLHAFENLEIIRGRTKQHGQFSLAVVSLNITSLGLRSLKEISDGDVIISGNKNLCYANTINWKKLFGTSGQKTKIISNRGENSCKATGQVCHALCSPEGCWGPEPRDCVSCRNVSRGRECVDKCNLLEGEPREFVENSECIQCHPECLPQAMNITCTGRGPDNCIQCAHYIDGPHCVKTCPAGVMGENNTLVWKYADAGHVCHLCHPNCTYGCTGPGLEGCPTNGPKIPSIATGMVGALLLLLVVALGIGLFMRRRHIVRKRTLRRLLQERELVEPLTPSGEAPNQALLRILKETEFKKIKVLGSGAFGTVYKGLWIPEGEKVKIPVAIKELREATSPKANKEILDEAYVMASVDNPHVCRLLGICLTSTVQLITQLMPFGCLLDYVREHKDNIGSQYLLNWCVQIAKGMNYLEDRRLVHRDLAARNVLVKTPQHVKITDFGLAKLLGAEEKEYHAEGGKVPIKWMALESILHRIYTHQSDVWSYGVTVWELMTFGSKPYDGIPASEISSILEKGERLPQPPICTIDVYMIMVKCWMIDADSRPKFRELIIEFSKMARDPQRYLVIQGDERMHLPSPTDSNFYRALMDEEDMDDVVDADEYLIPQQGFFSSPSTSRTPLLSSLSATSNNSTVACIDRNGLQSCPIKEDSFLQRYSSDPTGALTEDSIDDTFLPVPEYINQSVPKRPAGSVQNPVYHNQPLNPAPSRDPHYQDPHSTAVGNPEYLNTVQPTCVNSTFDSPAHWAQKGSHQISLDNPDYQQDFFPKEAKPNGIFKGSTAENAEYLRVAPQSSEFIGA
JAK-1, sequence (P23458 whole entry): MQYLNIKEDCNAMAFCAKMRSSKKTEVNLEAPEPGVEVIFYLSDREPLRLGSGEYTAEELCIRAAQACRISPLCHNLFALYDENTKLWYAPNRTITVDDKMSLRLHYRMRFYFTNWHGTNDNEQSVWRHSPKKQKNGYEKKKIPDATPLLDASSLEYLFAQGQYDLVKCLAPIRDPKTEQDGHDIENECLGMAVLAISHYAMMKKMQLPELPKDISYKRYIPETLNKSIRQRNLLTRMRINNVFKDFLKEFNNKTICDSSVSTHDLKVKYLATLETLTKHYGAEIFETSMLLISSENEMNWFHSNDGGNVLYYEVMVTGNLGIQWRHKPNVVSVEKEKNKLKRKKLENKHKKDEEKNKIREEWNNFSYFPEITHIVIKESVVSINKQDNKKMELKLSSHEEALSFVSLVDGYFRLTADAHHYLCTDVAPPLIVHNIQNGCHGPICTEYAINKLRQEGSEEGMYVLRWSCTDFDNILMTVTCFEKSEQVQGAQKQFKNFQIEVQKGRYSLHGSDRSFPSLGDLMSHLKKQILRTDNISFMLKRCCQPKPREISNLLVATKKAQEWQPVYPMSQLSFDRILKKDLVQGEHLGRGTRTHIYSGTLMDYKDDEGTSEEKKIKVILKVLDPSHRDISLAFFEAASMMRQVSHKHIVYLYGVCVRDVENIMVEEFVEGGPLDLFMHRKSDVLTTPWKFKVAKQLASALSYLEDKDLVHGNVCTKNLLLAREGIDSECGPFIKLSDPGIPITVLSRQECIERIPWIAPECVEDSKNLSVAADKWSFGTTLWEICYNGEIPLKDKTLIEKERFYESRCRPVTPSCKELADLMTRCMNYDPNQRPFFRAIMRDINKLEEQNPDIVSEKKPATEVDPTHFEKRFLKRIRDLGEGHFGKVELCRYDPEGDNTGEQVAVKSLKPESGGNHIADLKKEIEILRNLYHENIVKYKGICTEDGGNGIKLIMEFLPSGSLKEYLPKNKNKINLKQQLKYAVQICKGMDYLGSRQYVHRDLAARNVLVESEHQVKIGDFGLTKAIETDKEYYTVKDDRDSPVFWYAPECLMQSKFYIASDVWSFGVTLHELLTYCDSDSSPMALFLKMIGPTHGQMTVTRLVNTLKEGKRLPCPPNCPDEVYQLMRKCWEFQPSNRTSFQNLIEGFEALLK

CCCCc1nc2cc(/C=C/C(=O)NO)ccc2n1CCN(CC)CC [SB939]
pIC50 (HDAC): 6.85 to 7.40

CCCC(CCC)C(=O)O [Valproic acid sodium salt]
pIC50 (HDAC): 3.40

Cn1c(CCCC(=O)O)nc2cc(N(CCCl)CCCl)ccc21 [bendamustine, 4-[5-[Bis(2-chloroethyl)amino]-1-methylbenzimidazol-2-yl]butanoic acid]
combination effect with compound (1-1) [1]: Additive effects

CCN(CC)Cc1ccc2cc(COC(=O)Nc3ccc(C(=O)NO)cc3)ccc2c1 [ITF2357]
pIC50 (HDAC): 7.80 to 8.12

C/C(O)=C(\C#N)C(=O)Nc1cc(Br)ccc1Br
pIC50 (JAK-3): < 3.52 | pIC50 (Hck): < 3.52 | pIC50 (EGFR kinase): < 3.52 | pIC50 (JAK-2): < 3.52 | pIC50 (IR kinase): < 3.52 | pIC50 (SYK): < 3.52 | pIC50 (JAK-1): < 3.52

O=C(/C=C/c1ccc(CN(CCO)CCc2c[nH]c3ccccc23)cc1)NO [LAQ824]
pIC50 (HDAC): 7.49

Nc1ncnc2c1c(-c1cnc3[nH]ccc3c1)nn2C1CCCC1 [PP-121, 1-Cyclopentyl-3-(1H-pyrrolo[2,3-b]p-yridin-5-yl)-1H-pyrazolo[3,4-d]pyrimidin-4-amine]
pIC50 (PDGFR): 8.70

CC[C@H](Nc1ncnc2[nH]cnc12)c1nc2cccc(F)c2c(=O)n1-c1ccccc1 [idelalisib]
combination effect with compound (1-1) [1]: Synergy | Chou-Talalay combination index (CI), median [1]: 0.5 | Chou-Talalay combination index (CI), range [1]: 0.04-2.4

CO[C@H]1C[C@@H]2CC[C@@H](C)[C@@](O)(O2)C(=O)C(=O)N2CCCC[C@H]2C(=O)O[C@H]([C@H](C)C[C@@H]2CC[C@@H](OCCO)[C@H](OC)C2)CC(=O)[C@H](C)/C=C(\C)[C@@H](O)[C@@H](OC)C(=O)[C@H](C)C[C@H](C)/C=C/C=C/C=C/1C [Everolimus]
pIC50 (FKBP12): 8.62 to 8.80 | combination effect with compound (1-1) [1]: Synergy | Chou-Talalay combination index (CI), median [1]: 0.1 | Chou-Talalay combination index (CI), range [1]: 0.1-0.2

GSK2126458
pKi (PI3Kβ (p110β)): 9.89 | pKi (PI3Kγ (p110γ)): 10.62

COc1ccc(-c2cc3c(C)nc(N)nc3n([C@H]3CC[C@H](OCCO)CC3)c2=O)cn1 [PF-04691502]
pIC50 [2]: 8.12 | pIC50 [3]: 8.42

COc1ccc(-c2ccc3ncc4c(c3c2)n(-c2ccc(N3CCNCC3)c(C(F)(F)F)c2)c(=O)n4C)cn1 [NVP-BGT226]
pIC50 (PI3K/mTOR): 9.00

C=CC(=O)N1CCC[C@@H](n2nc(-c3ccc(Oc4ccccc4)cc3)c3c(N)ncnc32)C1 [ibrutinib]
combination effect with compound (1-1) [1]: Synergy | Chou-Talalay combination index (CI), median ([1]; in ABC-DLBCL): 0.04 | Chou-Talalay combination index (CI), range ([1]; in ABC-DLBCL): 0.02-0.1

COc1cccc2c1C(=O)c1c(O)c3c(c(O)c1C2=O)C[C@@](O)(C(=O)CO)C[C@@H]3O[C@H]1C[C@H](N)[C@H](O)[C@H](C)O1 [doxorubicin, (7S,9S)-7-[(2R,4S,5S,6S)-4-amino-5-hydroxy-6-methyloxan-2-yl]oxy-6,9,11-trihydroxy-9-(2-hydroxyacetyl)-4-methoxy-8,10-dihydro-7H-tetracene-5,12-dione]
combination effect with compound (1-1) [1]: Additive effects | Chou-Talalay combination index (CI), median [1]: 0.83 | Chou-Talalay combination index (CI), range [1]: 0.7-0.96

Nc1cccc2c1CN(C1CCC(=O)NC1=O)C2=O (centres unmarked) [lenalidomide]
combination effect with compound (1-1) [1]: Synergy | Chou-Talalay combination index (CI), median [1]: 0.7

O=C(CCCCCCC(=O)Nc1ccccc1)NO [Vorinostat, suberoylanilide hydroxamic acid]
combination effect with compound (1-1) [1]: Synergy | Chou-Talalay combination index (CI), median [1]: 0.5 | Chou-Talalay combination index (CI), range [1]: 0.3-0.6

CC1=C(/C=C/C(C)=C/C=C/C(C)=C/C(=O)O)C(C)(C)CCC1 [all-trans retinoic acid]
combination effect with compound (1-1) [1]: Synergy

CN(C)c1ccc(C(=O)NCCCCCCC(=O)NO)cc1 [Compound M344]
pIC50 (HDAC): 7.00

rituximab: agent combined with compound (1-1) in the synergy test
combination effect with compound (1-1) [1]: Synergy | Chou-Talalay combination index (CI), median [1]: 0.5 | Chou-Talalay combination index (CI), range [1]: 0.4-0.5

Cn1c(/C=C/C(=O)NO)ccc1/C=C/C(=O)c1cccc(F)c1 [MC1568]
pIC50 (HDAC): 6.70

CC(C)[C@H](C(=O)Nc1ccc(C(=O)NO)cc1)c1ccccc1 [AR-42]
pIC50 (HDAC): 7.52

COc1ccc(COc2cc3oc(=O)c4cc(C(C)O)ccc4c3cc2OC)cc1 (centres unmarked) [Palomid 529]
effect on phosphorylation of pAktS473, pGSK3βS9, pS6, pMAPK, pAktT308 [4]: both the mTORCl and mTORC2 complexes, reduces phosphorylation of pAktS473, pGSK3βS9, and pS6 but neither pMAPK nor pAktT308. Phase 1.
